Experiments:
[1] = test system: olfactory epithelium; assay: PET-MR imaging of radiotracer uptake in non-human primate; type: in vivo, rhesus macaque; conditions: NHPs
Experimental: The non-human primates were initially anesthetized with ketamine, followed by maintenance with isoflurane. Animals were placed on the imaging bed and two lines were inserted, an IV line for tracer administration and an arterial line for blood sampling. The animals were scanned for 90 minutes, including time for the MR structural scan. During the scan and tracer injection, the heart and breathing rate of the animal were monitored. Tracer doses were 4-6 mCi (bolus or bolus-plus-infusion) with or without treatment with study compounds (nonradioactive ‘blocking agent’). Prior to tracer injection, the purified tracer was analyzed on an analytical HPLC instrument to determine the purity (must be >95% chemical purity, must be >99% radiochemical purity) and specific activity (must be >1.0 Ci·μmol^−1 of the compound). As standard practice for all NHP work, pyrogenicity, chemical and radiochemical stability, residual solvents, pH, and sterility (post injection) were tested for. For [^11C] radiolabeled compounds, paired studies were performed with radiotracer injections spaced >2.5 h apart. For [^18F] studies, paired studies were performed by assessing baseline and pretreatment effect on two separate days. […]

[2] = test system: olfactory epithelium; assay: PET imaging of radiotracer uptake and specific binding with unlabeled-compound pretreatment in rats; type: in vivo, Sprague-Dawley rat
Text: Prior to imaging, animals were anesthetized with isoflurane and a catheter was placed in a lateral tail vein. An extension line was used to attach the catheter to a syringe with heparinized saline, which was used to prevent clotting of the line and catheter. Animals were then placed in one of two instruments (a GammeMedicaTriumph PET/CT/SPECT scanner or a Siemens R4 PET scanner) and maintained under isoflurane anesthesia for the imaging period. For scans completed in the Triumph scanner, CT images of the animals were taken for PET image attenuation. For animals imaged in the R4, a Germanium (Ge) 68 or a Cobalt (Co) 57 line source was used to create an attenuation correction map. Following imaging, animals were placed in their cages and monitored until they recovered from the anesthesia.
Male Sprague-Dawley rats were imaged with [^11C] radiolabeled N-benzyl-2-fluoro-9-methyl-9H-purin-6-amine following treatment with [^12C] radiolabeled N-benzyl-2-fluoro-9-methyl-9H-purin-6-amine to determine the specific binding of the radiotracer in the olfactory epithelium. Animals were injected with [^12C] radiolabeled N-benzyl-2-fluoro-9-methyl-9H-purin-6-amine (i.v.; 16 mg/kg; 4 mg/mL in 10% DMSO, 10% Tween 20, and 80% saline). After 5 min, animals were injected with [^11C] radiolabeled N-benzyl-2-fluoro-9-methyl-9H-purin-6-amine (0.3-1.5 mCi), in 10% ethanol, 90% saline). [^11C] […] Although [^11C] […] N-benzyl-2-fluoro-9-methyl-9H-purin-6-amine binding in the presence of unlabeled N-benzyl-2-fluoro-9-methyl-9H-purin-6-amine, shown in FIG. 1A-1D.
Animals were injected with an unlabeled N-benzyl-2-fluoro-9-methyl-9H-purin-6-amine (0.1-16 mg/kg in 10% DMSO, 10% Tween 20, and 80% saline). Following this, animals were injected with [^11C] radiolabeled N-benzyl-2-fluoro-9-methyl-9H-purin-6-amine (0.3-1.5 mCi, in 10% ethanol, 90% saline). For the self-blocking dose-response study, the animals were co-administered with N-benzyl-2-fluoro-9-methyl-9H-purin-6-amine and [^11C] radiolabeled N-benzyl-2-fluoro-9-methyl-9H-purin-6-amine in 10% DMSO, 10% Tween 20, 10% ethanol and 70% saline in 1 mL.

[3] = PET, i.v. radiotracer, male Sprague-Dawley rats

change of radiotracer binding in the presence of unlabeled N-benzyl-2-fluoro-9-methyl-9H-purin-6-amine ([1]; nasal cavity): decrease
non-specific binding ([2]; PET, brain): low non-specific binding
specific binding in the brain ([2]; PET, brain): limited specific binding in the brain
initial uptake in the brain [2, 3]: high initial uptake in the brain
removal from the brain [2, 3]: fast removal from the brain
specific binding in the nasal cavity ([2]; PET, nasal cavity where olfactory receptor neurons are located, rats): specific binding in the nasal cavity
change of radiotracer binding in the presence of unlabeled N-benzyl-2-fluoro-9-methyl-9H-purin-6-amine ([2]; nasal cavity, rats, unlabeled compound i.v. 16 mg/kg 5 min before tracer): decrease
SMILES: [11CH3]n1cnc2c(NCc3ccccc3)nc(F)nc21 [[^11C] Radiolabeled N-benzyl-2-fluoro-9-methyl-9H-purin-6-amine]
specific binding in the nasal cavity [1]: specific binding is present in the nasal cavity
